US11730405B2, “Body fluid leakage detection aqueous composition” (MAGLE CHEMOSWED HOLDING AB, priority 2017, dated 2023)
Several values for one entry are separate records, joined by “and”; a condition that tells them apart may be missing. Identical values can stand only once. Like-named read-outs stand apart in the source and are kept apart here.

What was measured:
[1] = Pharmacokinetics of BTB in drainage fluid and portal venous blood after abdominal application of PAN indicator hydrogel (HPLC-MS); format: in vivo, domestic pigs (Sus Scrofa Domestica); details: for concentration at 1 day / concentration at 2 day / concentration at 0 min / concentration at 1 min / concentration at 5 min / concentration at 30 min / concentration at 60 min / concentration at 120 min: pig, other: abdominal application at the pancreatic surgery field; for concentration at 5 min: Min 5, mean of animals; for concentration at 30 min: Min 30, mean of animals
Method: (§1) PAN toxicology was evaluated by analyzing in vivo pharmacokinetics of its degradation products over 48 hours. Additionally, acute local tissue injury caused by the indicator within minutes as well as macroscopic intra-abdominal side effects and local histological of the device over 8 days were assessed. Finally, cytotoxicity of its degradation products on pancreatic target cells was analyzed.
For toxicological evaluation of PAN indicator hydrogel pharmacokinetics studies were conducted measuring concentrations of degradation products of the device in body fluid components over time consequently to abdominal application in pancreatic surgery. Blood from portal vein and peritoneal fluid from intraoperative situs or postoperative drainages were sampled. Time points of sampling in relation to indicator application were: 0 min (baseline before indicator application), 1, 5, 30, 60, and 120 min, 1st and 2nd postoperative day. Due to its composition with water and degradable components starch microspheres, only further constituent bromothymol blue (BTB) needed to be evaluated. It should be evaluated if and how much BTB stays in the organism after application at the pancreatic surgery field, gets resorbed to portal venous circulation and passes liver metabolism to reach central venous circulation. Thus, samples of body were collected at the different body compartments over time as described above. Due to expected extremely small BTB-amounts to be measured the very sensitive detection method High Pressure Liquid Chromatography-Mass Spectrometry (HPLC-MS) was used.

[2] = cited from earlier work
[3] = test system: pancreatic target cells; assay: Cytotoxicity cell culture assay (resazurin to resofurin fluorescence photometry); format: cell-based
Method: as §1
Cytotoxicity by PAN was further evaluated in a cell culture assay. Metabolic activity of viable cells was evaluated by fluorescence photometry of metabolized resofurin from resazurin after incubation with increasing amount of BTB. PAN indicator hydrogels contain BTB at a concentration of almost 0.5 mg/ml. Thus BTB-solutions with concentrations of 0.5 mg/ml, 1 mg/ml, 1.5 mg/ml, and 5.5 mg/ml, respectively were tested. Cytotoxicity is defined as cell viability less than 70%.

[4] = drainage fluid (peritoneal fluid), pig drainage fluid, read-out: Drainage BTB-Concentration, Mean
[5] = portal venous blood, pig portal venous blood, read-out: Portal Venous Blood BTB-Concentration, Mean

concentration at 1 day ([1]; drainage fluid (peritoneal fluid), pig drainage fluid, Day 1, mean of animals, read-out: Drainage BTB-Concentration, Mean): 17.1 ng/mL
concentration at 2 day ([1]; drainage fluid (peritoneal fluid), pig drainage fluid, Day 2, mean of animals, read-out: Drainage BTB-Concentration, Mean): 0 ng/mL
concentration at 0 min ([1]; drainage fluid (peritoneal fluid), pig drainage fluid, Min 0 (baseline before indicator application), mean of animals, read-out: Drainage BTB-Concentration, Mean): 1.9 ng/mL
concentration at 1 min ([1]; drainage fluid (peritoneal fluid), pig drainage fluid, Min 1, mean of animals, read-out: Drainage BTB-Concentration, Mean): 4220 ng/mL
concentration at 5 min [1, 4]: 3170 ng/mL
concentration at 30 min [1, 4]: 1310 ng/mL
concentration at 60 min ([1]; drainage fluid (peritoneal fluid), pig drainage fluid, Min 60, mean of animals, read-out: Drainage BTB-Concentration, Mean): 661 ng/mL
concentration at 120 min ([1]; drainage fluid (peritoneal fluid), pig drainage fluid, Min 120, mean of animals, read-out: Drainage BTB-Concentration, Mean): 408 ng/mL
concentration at 1 day ([1]; portal venous blood, pig portal venous blood, Day 1, mean of animals, read-out: Portal Venous Blood BTB-Concentration, Mean): 0 ng/mL
concentration at 2 day ([1]; portal venous blood, pig portal venous blood, Day 2, mean of animals, read-out: Portal Venous Blood BTB-Concentration, Mean): 0 ng/mL
concentration at 0 min ([1]; portal venous blood, pig portal venous blood, Min 0 (baseline before indicator application), mean of animals, read-out: Portal Venous Blood BTB-Concentration, Mean): 0 ng/mL
concentration at 1 min ([1]; portal venous blood, pig portal venous blood, Min 1, mean of animals, read-out: Portal Venous Blood BTB-Concentration, Mean): 0 ng/mL
concentration at 5 min [1, 5]: 0.51 ng/mL
concentration at 30 min [1, 5]: 0.53 ng/mL
concentration at 60 min ([1]; portal venous blood, pig portal venous blood, Min 60, mean of animals, read-out: Portal Venous Blood BTB-Concentration, Mean): 0 ng/mL
concentration at 120 min ([1]; portal venous blood, pig portal venous blood, Min 120, mean of animals, read-out: Portal Venous Blood BTB-Concentration, Mean): 0 ng/mL
SMILES: Cc1c(C2(c3cc(C(C)C)c(O)c(Br)c3C)OS(=O)(=O)c3ccccc32)cc(C(C)C)c(O)c1Br [BTB, bromothymol blue]
Drainage BTB-Concentration ([1]; pig drainage fluid, Day 1 (1st postoperative day), individual animals Tox 1-4): < 20 ng/mL and 32.1 ng/mL and 18.9 ng/mL and 14.4 ng/mL and 2.98 ng/mL
Drainage BTB-Concentration ([1]; pig drainage fluid, Day 2 (2nd postoperative day), individual animals Tox 1-4): no detectable amount and 0 ng/ml
Drainage BTB-Concentration ([1]; pig drainage fluid, Min 0 (baseline before indicator application), individual animals Tox 1-4): 0 ng/ml (3×) and 7.44 ng/ml
Drainage BTB-Concentration ([1]; pig drainage fluid, Min 1 after indicator application, individual animals Tox 1-4): 2060 ng/mL and 9220 ng/mL and 3600 ng/mL and 2010 ng/mL
Drainage BTB-Concentration ([1]; pig drainage fluid, Min 5, individual animals Tox 1-4): 7650 ng/mL and 389 ng/mL and 2560 ng/mL and 2070 ng/mL
Drainage BTB-Concentration ([1]; pig drainage fluid, Min 30, individual animals Tox 1-4): 3280 ng/mL and 10.7 ng/mL and 1220 ng/mL and 712 ng/mL
Drainage BTB-Concentration ([1]; pig drainage fluid, Min 60, individual animals Tox 1-4): 1140 ng/mL and 9.27 ng/mL and 1270 ng/mL and 224 ng/mL
Drainage BTB-Concentration ([1]; pig drainage fluid, Min 120, individual animals Tox 1-4): 619 ng/mL and 263 ng/mL and 631 ng/mL and 121 ng/mL
Portal Venous Blood BTB-Concentration ([1]; pig portal venous blood, Day 1, individual animals Tox 1-4): 0 ng/mL
Portal Venous Blood BTB-Concentration ([1]; pig portal venous blood, Day 2, individual animals Tox 1-4): 0 ng/mL
Portal Venous Blood BTB-Concentration ([1]; pig portal venous blood, Min 0 (baseline before indicator application), individual animals Tox 1-4): 0 ng/mL
Portal Venous Blood BTB-Concentration ([1]; pig portal venous blood, Min 1, individual animals Tox 1-4): 0 ng/mL
Portal Venous Blood BTB-Concentration ([1]; pig portal venous blood, Min 5, individual animals Tox 1-4): 0 ng/ml (3×) and 2.02 ng/ml
Portal Venous Blood BTB-Concentration ([1]; pig portal venous blood, Min 30, individual animals Tox 1-4): 0 ng/ml (3×) and 2.11 ng/ml
Portal Venous Blood BTB-Concentration ([1]; pig portal venous blood, Min 60, individual animals Tox 1-4): 0 ng/mL
Portal Venous Blood BTB-Concentration ([1]; pig portal venous blood, Min 120, individual animals Tox 1-4): 0 ng/mL
concentration at 2 day ([1]; drainage fluid (peritoneal fluid), pig drainage fluid, Day 2 (2nd postoperative day), individual animals Tox 1-4, read-out: Drainage BTB-Concentration): 0 ng/mL
concentration at 1 day ([1]; portal venous blood, pig portal venous blood, Day 1, individual animals Tox 1-4, read-out: Portal Venous Blood BTB-Concentration): 0 ng/mL
concentration at 2 day ([1]; portal venous blood, pig portal venous blood, Day 2, individual animals Tox 1-4, read-out: Portal Venous Blood BTB-Concentration): 0 ng/mL
concentration at 0 min ([1]; portal venous blood, pig portal venous blood, Min 0 (baseline before indicator application), individual animals Tox 1-4, read-out: Portal Venous Blood BTB-Concentration): 0 ng/mL
concentration at 1 min ([1]; portal venous blood, pig portal venous blood, Min 1, individual animals Tox 1-4, read-out: Portal Venous Blood BTB-Concentration): 0 ng/mL
concentration at 60 min ([1]; portal venous blood, pig portal venous blood, Min 60, individual animals Tox 1-4, read-out: Portal Venous Blood BTB-Concentration): 0 ng/mL
concentration at 120 min ([1]; portal venous blood, pig portal venous blood, Min 120, individual animals Tox 1-4, read-out: Portal Venous Blood BTB-Concentration): 0 ng/mL
BTB in portal venous blood ([1]; pigs, 5 and 30 minutes after application, remaining pigs and timepoints no BTB detected): small amounts of BTB were found only in one pig
pKa [2]: 7.0
cytotoxicity (defined as cell viability less than 70%) ([3]; 5.5 mg/ml of BTB): slight toxicity
cytotoxicity (defined as cell viability less than 70%) ([3]; 0.5-1.5 mg/ml of BTB): No cytotoxicity
